From patent US20140163023A1, “DIHYDROPYRROLO PYRIMIDINE DERIVATIVES AS MTOR INHIBITORS” (Cellzome Limited, priority 2011, published 2014) come the findings set out here.

One test addresses T1, PI3Kα (Homo sapiens, UniProt P42336).
T1 construct: endogenous in cells; host or cells: Jurkat (ATCC TIB-152, clone E6-1) and Ramos (ATCC CRL-1596), 1:1 lysate mix
As to the kind of experiment: kinobeads assay, PI3Kα. The format is binding. The note with it: 1:1 mix of Jurkat and Ramos cell lysates, read-out: Inhibition values (IC50 in μM) as determined in the kinobeads assay, PI3Kα. The procedure:
(§1) The compounds of the present invention as described were tested in the mTOR kinobeads assay as described below. Briefly, test compounds (at various concentrations) and the affinity matrix (1:1 mixture of beads with immobilized phenylthiazole ligand 1 and beads with immobilized phenylmorpholin-chromen ligand; WO 2009/098021) were added to cell lysate aliquots and allowed to bind to the proteins in the lysate sample. After the incubation time the beads with captured proteins were separated from the lysate. Bound proteins were then eluted and the presence of mTOR, PI3Kα, PI3Kβ, PI3Kγ, PI3Kδ and DNA-dependent protein kinase (DNA-PK) was detected and quantified using a specific antibody in a dot blot procedure and the Odyssey infrared detection system. Dose response curves for individual kinases were generated and IC50 values calculated. Kinobeads assays for PI3 kinases (WO-A 2008/015013) and for kinase selectivity profiling (WO 2009/098021) have been previously described.
(§2) Washing of Affinity Matrix
(§3) The affinity matrix was washed two times with 15 ml of 1×DP buffer containing 0.2% NP40 (IGEPAL® CA-630, Sigma, #13021) and then resupended in 5.5 ml of 1×DP buffer containing 0.2% NP40 (10% beads slurry).
(§4) 5×DP buffer: 250 mM Tris-HCl pH 7.4, 25% Glycerol, 7.5 mM MgCl2, 750 mM NaCl, 5 mM Na3VO4, filter the 5×-lysis buffer through 0.22 μm filter and store in aliquots at −80° C. The 5×DP buffer is diluted to 1×DP buffer containing 1 mM DTT and 25 mM NaF.
(§5) Preparation of Test Compounds
(§6) Stock solutions of test compounds were prepared in DMSO. In a 96 well plate 30 μl solution of diluted test compounds at 5 mM in DMSO were prepared. Starting with this solution a 1:3 dilution series (9 steps) was prepared. For control experiments (no test compound) a buffer containing 2% DMSO was used. Compound Pi-103 (Calbiochem catalogue number 528100) served as a positive control.
(§7) Cell Culture and Preparation of Cell Lysates
(§8) Jurkat cells (ATCC catalogue number TIB-152 Jurkat, clone E6-1) and Ramos cells (ATCC number CRL-1596) were grown in 1 litre Spinner flasks (Integra Biosciences, #182101) in suspension in RPMI 1640 medium (Invitrogen, #21875-034) supplemented with 10% Fetal Bovine Serum (Invitrogen) at a density between 0.15×10^6 and 1.2×10^6 cells/ml. Cells were harvested by centrifugation, washed once with 1×PBS buffer (Invitrogen, #14190-094) and cell pellets were frozen in liquid nitrogen and subsequently stored at −80° C.
(§9) Cells were homogenized in a Potter S homogenizer in lysis buffer: 50 mM Tris-HCl, 0.8% NP40, 5% glycerol, 150 mM NaCl, 1.5 mM MgCl2, 25 mM NaF, 1 mM sodium vanadate, 1 mM DTT, pH 7.5. One complete EDTA-free tablet (protease inhibitor cocktail, Roche Diagnostics, 1873580) per 25 ml buffer was added. The material was dounced 10 times using a mechanized POTTER S, transferred to 50 ml falcon tubes, incubated for 30 minutes on ice and spun down for 10 min at 20,000 g at 4° C. (10,000 rpm in Sorvall SLA600, precooled). The supernatant was transferred to an ultracentrifuge (UZ)-polycarbonate tube (Beckmann, 355654) and spun for 1 hour at 100.000 g at 4° C. (33.500 rpm in Ti50.2, precooled). The supernatant was transferred again to a fresh 50 ml falcon tube, the protein concentration was determined by a Bradford assay (BioRad) and samples containing 50 mg of protein per aliquot were prepared. The samples were immediately used for experiments or frozen in liquid nitrogen and stored frozen at −80° C.
(§10) Cell lysate (approximately 50 mg protein per plate) was thawed in a water bath at room temperature and then kept on ice. To the thawed cell lysate 1×DP 0.8% NP40 buffer containing protease inhibitors (1 tablet for 25 ml buffer; EDTA-free protease inhibitor cocktail; Roche Diagnostics 1873580) was added in order to reach a final protein concentration of 5 mg/ml total protein. For the kinobeads experiment a 1:1 mix of Jurkat and Ramos cell lysates was used. The diluted cell lysate was stored on ice. […]

Another test concerns the target T2, PI3Kβ (Homo sapiens, UniProt P42338).
T2 construct: endogenous in cells; host or cells: Jurkat (ATCC TIB-152, clone E6-1) and Ramos (ATCC CRL-1596), 1:1 lysate mix
Kind of test: kinobeads assay, PI3Kβ. The note with it: 1:1 mix of Jurkat and Ramos cell lysates, read-out: Inhibition values (IC50 in μM) as determined in the kinobeads assay, PI3Kβ. The format is binding. The protocol:
as §1, §2, §3, §4, §5, §6, §7, §8, §9, §10

A further test addresses T3, PI3Kγ (Homo sapiens, UniProt P48736).
T3 construct: endogenous in cells; host or cells: Jurkat (ATCC TIB-152, clone E6-1) and Ramos (ATCC CRL-1596), 1:1 lysate mix
As to the kind of experiment: kinobeads assay, PI3Kγ. The class given is binding. The conditions noted are these: 1:1 mix of Jurkat and Ramos cell lysates, read-out: Inhibition values (IC50 in μM) as determined in the kinobeads assay, PI3Kγ. The procedure:
as §1, §2, §3, §4, §5, §6, §7, §8, §9, §10

The target of the next test is T4, mTOR (Homo sapiens, UniProt P42345).
T4 construct: endogenous in cells; host or cells: Jurkat (ATCC TIB-152, clone E6-1) and Ramos (ATCC CRL-1596), 1:1 lysate mix
Kind of test: mTOR kinobeads assay (competition binding in cell lysate, dot blot detection). The note with it: 1:1 mix of Jurkat and Ramos cell lysates, read-out: Inhibition values (IC50 in μM) as determined in the kinobeads assay, mTor. The procedure:
Determination of the Effect of the Compounds According to the Invention on mTOR
as §1, §2, §3, §4, §5, §6, §7, §8, §9
Cell lysate (approximately 50 mg protein per plate) was thawed in a water bath at room temperature and then kept on ice. To the thawed cell lysate 1×DP 0.8% NP40 buffer containing protease inhibitors (1 tablet for 25 ml buffer; EDTA-free protease inhibitor cocktail; Roche Diagnostics 1873580) was added in order to reach a final protein concentration of 5 mg/ml total protein. For the kinobeads experiment a 1:1 mix of Jurkat and Ramos cell lysates was used. […]

A further test addresses T5, PI3Kδ (Homo sapiens, UniProt O00329).
T5 construct: endogenous in cells; host or cells: Jurkat (ATCC TIB-152, clone E6-1) and Ramos (ATCC CRL-1596), 1:1 lysate mix
Kind of test: kinobeads assay, PI3Kδ. The class given is binding. The note with it: 1:1 mix of Jurkat and Ramos cell lysates, read-out: Inhibition values (IC50 in μM) as determined in the kinobeads assay, PI3Kδ. The procedure:
as §1, §2, §3, §4, §5, §6, §7, §8, §9, §10

Test [1] addresses T6, DNA-dependent protein kinase (DNA-PK) (Homo sapiens, UniProt P78527).
T6 construct: endogenous in cells; host or cells: Jurkat (ATCC TIB-152, clone E6-1) and Ramos (ATCC CRL-1596), 1:1 lysate mix
As to the kind of experiment: kinobeads assay, DNA-PK. The class given is binding. The note with it: 1:1 mix of Jurkat and Ramos cell lysates, read-out: Inhibition values (IC50 in μM) as determined in the kinobeads assay, DNA-PK. The procedure: as §1, §2, §3, §4, §5, §6, §7, §8, §9, §10

T2 sequence (P42338 whole entry): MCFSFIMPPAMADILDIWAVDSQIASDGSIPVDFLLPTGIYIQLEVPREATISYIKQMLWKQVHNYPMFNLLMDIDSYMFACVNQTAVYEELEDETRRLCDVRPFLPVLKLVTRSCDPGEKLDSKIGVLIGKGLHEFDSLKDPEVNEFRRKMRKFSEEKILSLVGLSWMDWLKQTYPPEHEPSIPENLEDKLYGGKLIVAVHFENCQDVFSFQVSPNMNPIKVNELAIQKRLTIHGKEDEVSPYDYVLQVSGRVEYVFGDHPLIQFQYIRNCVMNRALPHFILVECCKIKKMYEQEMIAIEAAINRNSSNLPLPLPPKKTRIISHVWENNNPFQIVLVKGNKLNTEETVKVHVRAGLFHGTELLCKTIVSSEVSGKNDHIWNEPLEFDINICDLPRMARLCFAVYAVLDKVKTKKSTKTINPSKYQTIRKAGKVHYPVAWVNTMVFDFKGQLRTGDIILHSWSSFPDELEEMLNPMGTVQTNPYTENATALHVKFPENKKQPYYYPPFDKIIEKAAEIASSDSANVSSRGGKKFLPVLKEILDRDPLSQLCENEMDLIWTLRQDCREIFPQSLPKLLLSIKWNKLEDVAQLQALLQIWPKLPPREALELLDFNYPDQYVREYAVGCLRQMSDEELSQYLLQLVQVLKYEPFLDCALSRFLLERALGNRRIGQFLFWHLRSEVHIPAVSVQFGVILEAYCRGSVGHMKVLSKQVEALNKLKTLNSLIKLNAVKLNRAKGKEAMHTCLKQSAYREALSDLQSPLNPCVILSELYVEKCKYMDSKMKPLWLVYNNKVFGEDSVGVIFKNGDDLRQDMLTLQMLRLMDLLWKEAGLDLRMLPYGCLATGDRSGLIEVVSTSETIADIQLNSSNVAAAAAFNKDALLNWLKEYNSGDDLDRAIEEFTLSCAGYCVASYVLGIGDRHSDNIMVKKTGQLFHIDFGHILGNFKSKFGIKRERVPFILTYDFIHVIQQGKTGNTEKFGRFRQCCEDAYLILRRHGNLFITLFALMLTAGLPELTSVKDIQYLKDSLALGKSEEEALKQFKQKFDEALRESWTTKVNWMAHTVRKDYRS
T2 sequence (P27986 whole entry partner): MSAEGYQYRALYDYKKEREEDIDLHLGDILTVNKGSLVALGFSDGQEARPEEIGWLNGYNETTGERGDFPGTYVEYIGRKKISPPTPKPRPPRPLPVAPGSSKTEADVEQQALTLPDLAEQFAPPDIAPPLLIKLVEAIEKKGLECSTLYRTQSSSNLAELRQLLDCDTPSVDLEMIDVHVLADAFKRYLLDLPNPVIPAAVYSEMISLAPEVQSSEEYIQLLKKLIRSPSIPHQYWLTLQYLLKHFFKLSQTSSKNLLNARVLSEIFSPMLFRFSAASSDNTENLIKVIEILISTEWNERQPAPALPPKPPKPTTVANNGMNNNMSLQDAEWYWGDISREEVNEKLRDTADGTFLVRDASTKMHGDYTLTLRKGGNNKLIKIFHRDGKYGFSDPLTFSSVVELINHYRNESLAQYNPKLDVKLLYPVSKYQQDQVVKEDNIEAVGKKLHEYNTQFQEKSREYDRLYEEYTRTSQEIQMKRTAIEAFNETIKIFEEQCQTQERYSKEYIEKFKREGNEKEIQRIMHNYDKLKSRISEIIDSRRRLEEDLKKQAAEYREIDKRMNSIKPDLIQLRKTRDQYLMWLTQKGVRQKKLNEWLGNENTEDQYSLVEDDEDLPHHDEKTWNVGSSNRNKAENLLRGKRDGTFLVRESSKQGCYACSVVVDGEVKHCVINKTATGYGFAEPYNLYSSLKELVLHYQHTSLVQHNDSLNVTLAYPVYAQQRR
T5 sequence (O00329 whole entry): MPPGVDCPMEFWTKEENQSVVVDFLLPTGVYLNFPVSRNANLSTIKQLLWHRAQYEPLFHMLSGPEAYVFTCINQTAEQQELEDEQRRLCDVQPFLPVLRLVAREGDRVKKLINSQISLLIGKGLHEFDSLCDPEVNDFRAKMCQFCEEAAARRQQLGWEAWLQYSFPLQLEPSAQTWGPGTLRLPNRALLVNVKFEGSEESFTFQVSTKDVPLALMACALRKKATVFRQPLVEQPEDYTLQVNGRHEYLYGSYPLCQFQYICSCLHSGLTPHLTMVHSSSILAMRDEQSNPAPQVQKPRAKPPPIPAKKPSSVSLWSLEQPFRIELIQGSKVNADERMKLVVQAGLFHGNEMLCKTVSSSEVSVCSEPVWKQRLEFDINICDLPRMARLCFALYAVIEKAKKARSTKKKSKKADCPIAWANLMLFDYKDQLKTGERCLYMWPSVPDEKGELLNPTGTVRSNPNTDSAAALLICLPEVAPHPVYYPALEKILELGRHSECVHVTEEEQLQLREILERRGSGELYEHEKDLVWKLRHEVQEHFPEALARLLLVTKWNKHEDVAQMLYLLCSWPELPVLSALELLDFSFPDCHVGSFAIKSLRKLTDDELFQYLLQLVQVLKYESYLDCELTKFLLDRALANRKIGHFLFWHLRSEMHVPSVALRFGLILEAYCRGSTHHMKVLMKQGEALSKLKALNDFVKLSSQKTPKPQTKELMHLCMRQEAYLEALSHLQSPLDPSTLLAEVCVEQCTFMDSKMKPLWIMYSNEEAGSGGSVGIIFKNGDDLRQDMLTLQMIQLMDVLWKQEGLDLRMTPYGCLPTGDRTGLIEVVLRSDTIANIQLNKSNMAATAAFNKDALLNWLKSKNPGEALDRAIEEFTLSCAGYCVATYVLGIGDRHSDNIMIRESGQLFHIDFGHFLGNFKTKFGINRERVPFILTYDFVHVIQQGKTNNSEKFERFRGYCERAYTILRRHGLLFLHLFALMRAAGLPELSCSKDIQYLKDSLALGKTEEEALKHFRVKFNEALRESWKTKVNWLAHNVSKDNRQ
T5 sequence (P27986 whole entry partner): as the sequence (P27986 whole entry partner) above
T3 sequence (P48736 whole entry): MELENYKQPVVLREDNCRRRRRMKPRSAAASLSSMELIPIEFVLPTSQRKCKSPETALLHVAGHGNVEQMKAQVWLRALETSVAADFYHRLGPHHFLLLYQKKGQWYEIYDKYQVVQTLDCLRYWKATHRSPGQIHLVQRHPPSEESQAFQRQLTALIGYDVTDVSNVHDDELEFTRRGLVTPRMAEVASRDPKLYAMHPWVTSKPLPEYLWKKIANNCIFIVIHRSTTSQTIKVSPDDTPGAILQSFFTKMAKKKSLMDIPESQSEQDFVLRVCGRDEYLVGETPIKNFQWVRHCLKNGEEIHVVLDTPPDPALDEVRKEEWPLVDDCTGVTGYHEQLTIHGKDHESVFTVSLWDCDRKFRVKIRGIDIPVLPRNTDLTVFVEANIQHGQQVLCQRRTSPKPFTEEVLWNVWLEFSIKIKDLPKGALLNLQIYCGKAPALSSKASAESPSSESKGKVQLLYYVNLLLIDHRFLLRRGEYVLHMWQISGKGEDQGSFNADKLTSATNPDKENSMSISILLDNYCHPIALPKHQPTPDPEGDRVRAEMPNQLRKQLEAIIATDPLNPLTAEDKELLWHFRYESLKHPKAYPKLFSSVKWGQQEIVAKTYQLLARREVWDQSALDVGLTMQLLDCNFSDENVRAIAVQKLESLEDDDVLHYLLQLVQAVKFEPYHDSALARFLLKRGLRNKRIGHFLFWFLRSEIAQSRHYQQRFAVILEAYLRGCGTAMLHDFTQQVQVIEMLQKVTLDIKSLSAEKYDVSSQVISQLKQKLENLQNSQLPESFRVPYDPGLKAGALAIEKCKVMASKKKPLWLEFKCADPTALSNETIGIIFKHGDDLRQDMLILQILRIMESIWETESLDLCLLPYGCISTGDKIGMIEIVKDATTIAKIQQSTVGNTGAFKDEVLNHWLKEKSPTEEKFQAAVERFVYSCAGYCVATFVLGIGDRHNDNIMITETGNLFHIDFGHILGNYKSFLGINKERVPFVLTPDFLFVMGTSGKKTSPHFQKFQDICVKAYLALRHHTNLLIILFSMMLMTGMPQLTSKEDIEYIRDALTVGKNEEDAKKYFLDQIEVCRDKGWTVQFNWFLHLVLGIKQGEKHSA
T1 sequence (P42336 whole entry): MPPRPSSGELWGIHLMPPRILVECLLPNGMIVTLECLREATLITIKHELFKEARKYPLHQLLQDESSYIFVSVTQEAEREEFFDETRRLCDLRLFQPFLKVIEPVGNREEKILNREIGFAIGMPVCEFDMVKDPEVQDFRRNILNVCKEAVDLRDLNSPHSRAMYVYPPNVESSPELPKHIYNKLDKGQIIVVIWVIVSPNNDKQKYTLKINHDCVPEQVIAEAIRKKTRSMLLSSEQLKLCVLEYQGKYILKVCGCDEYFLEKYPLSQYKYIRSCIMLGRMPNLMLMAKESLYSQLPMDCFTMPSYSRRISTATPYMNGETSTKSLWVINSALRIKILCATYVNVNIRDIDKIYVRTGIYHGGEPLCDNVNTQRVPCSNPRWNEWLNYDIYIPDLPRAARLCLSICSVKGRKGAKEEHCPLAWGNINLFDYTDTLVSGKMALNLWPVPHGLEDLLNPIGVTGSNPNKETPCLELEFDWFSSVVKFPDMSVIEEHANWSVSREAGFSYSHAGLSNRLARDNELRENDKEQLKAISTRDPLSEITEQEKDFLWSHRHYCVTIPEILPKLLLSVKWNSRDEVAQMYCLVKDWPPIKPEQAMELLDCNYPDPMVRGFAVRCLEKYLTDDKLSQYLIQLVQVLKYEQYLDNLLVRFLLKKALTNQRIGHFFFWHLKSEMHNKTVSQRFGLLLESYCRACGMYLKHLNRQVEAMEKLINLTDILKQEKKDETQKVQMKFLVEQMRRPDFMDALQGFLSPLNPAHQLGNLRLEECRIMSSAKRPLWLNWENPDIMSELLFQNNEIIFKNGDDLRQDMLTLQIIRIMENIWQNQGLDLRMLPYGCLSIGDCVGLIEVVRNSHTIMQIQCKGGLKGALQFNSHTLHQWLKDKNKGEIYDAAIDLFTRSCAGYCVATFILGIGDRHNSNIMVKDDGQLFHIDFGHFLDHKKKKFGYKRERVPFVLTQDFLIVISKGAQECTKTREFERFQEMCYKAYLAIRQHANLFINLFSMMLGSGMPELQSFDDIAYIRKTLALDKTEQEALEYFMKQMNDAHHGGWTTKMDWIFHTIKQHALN
T1 sequence (P27986 whole entry partner): as the sequence (P27986 whole entry partner) above

The IC50 is the concentration at which inhibition is half-maximal. Turning to `CC(C)N1Cc2nc(N3CCOC[C@@H]3C)nc(-c3ccc(NC(=O)NC4CC4)cc3)c2C1` [Example 13, (S)-1-cyclopropyl-3-(4-(6-isopropyl-2-(3-methylmorpholino)-6,7-dihydro-5H-pyrrolo[3,4-d]pyrimidin-4-yl)phenyl)urea], the IC50 was above 100 µM on PI3Kα; above 100 µM at PI3Kβ; above 100 µM at PI3Kγ; 0.1 to 1 µM at mTOR; above 100 µM on PI3Kδ; above 100 µM in test [1].

Consider `C[C@H]1COCCN1c1nc2c(c(-c3ccc(NC(=O)NC4CC4)cc3)n1)CN(C1CC1)C2` [Example 14, (S)-1-cyclopropyl-3-(4-(6-cyclopropyl-2-(3-methylmorpholino)-6,7-dihydro-5H-pyrrolo[3,4-d]pyrimidin-4-yl)phenyl)urea], for which the IC50 on PI3Kα is above 100 µM; at PI3Kβ, above 100 µM; at PI3Kγ, above 100 µM; on mTOR, 1 to 10 µM; on PI3Kδ it was above 100 µM; in test [1], above 100 µM.

On to `C[C@H]1COCCN1c1nc2c(c(-c3ccc(NC(=O)NC4CC4)cc3)n1)CN(S(C)(=O)=O)C2` [Example 15, (S)-1-cyclopropyl-3-(4-(2-(3-methylmorpholino)-6-(methylsulfonyl)-6,7-dihydro-5H-pyrrolo[3,4-d]pyrimidin-4-yl)phenyl)urea], for which the IC50 on PI3Kα was above 100 µM; on PI3Kβ, above 100 µM; on PI3Kγ it was above 100 µM; at mTOR, 0.1 to 1 µM; on PI3Kδ, above 100 µM; in test [1] it was above 100 µM.

Regarding `C[C@H]1COCCN1C(=O)Nc1ccc(-c2nc(N3CCOC[C@@H]3C)nc3c2CNC3)cc1` [Example 16, (S)-3-methyl-N-(4-(2-((S)-3-methylmorpholino)-6,7-dihydro-5H-pyrrolo[3,4-d]pyrimidin-4-yl)phenyl)morpholine-4-carboxamide], the IC50 at PI3Kα was above 100 µM; on PI3Kβ, above 100 µM; at PI3Kγ it was above 100 µM; on mTOR, 1 to 10 µM; at PI3Kδ it was above 100 µM; in test [1] it was above 100 µM.

Turning to `CCNC(=O)N1Cc2nc(N3CCOC[C@@H]3C)nc(-c3ccc(NC(=O)NC4CC4)cc3)c2C1` [Example 17, (S)-4-(4-(3-cyclopropylureido)phenyl)-N-ethyl-2-(3-methylmorpholino)-5H-pyrrolo[3,4-d]pyrimidine-6(7H)-carboxamide], the IC50 is 10 to 100 µM on PI3Kα; above 100 µM on PI3Kβ; above 100 µM on PI3Kγ; 1 to 10 µM at mTOR; above 100 µM at PI3Kδ; above 100 µM in test [1].

In the case of `O=C(Nc1ccc(-c2nc(N3CC4CCC(C3)O4)nc3c2CNC3)cc1)NC1CC1` [Example 18, 1-(4-(2-(8-oxa-3-azabicyclo[3.2.1]octan-3-yl)-6,7-dihydro-5H-pyrrolo[3,4-d]pyrimidin-4-yl)phenyl)-3-cyclopropylurea], the IC50 was above 100 µM on PI3Kα; above 100 µM at PI3Kβ; above 100 µM at PI3Kγ; 0.1 to 1 µM at mTOR; above 100 µM on PI3Kδ; 10 to 100 µM in test [1].

On to `C[C@H]1COCCN1c1nc2c(c(-c3ccc(NC(=O)NCCO)cc3)n1)CNC2` [Example 19, (S)-1-(2-hydroxyethyl)-3-(4-(2-(3-methylmorpholino)-6,7-dihydro-5H-pyrrolo[3,4-d]pyrimidin-4-yl)phenyl)urea], for which the IC50 was 1 to 10 µM on PI3Kα; 10 to 100 µM at PI3Kβ; 1 to 10 µM on PI3Kγ; at most 0.1 µM at mTOR; 10 to 100 µM at PI3Kδ; 10 to 100 µM in test [1].

Regarding `C[C@H]1COCCN1c1nc2c(c(-c3ccc(NC(=O)NC4CC4)cc3)n1)CN(C(=O)CN(C)C)C2` [Example 20, (S)-1-cyclopropyl-3-(4-(6-(2-(dimethylamino)acetyl)-2-(3-methylmorpholino)-6,7-dihydro-5H-pyrrolo[3,4-d]pyrimidin-4-yl)phenyl)urea], the IC50 is above 100 µM at PI3Kα; 10 to 100 µM on PI3Kβ; above 100 µM at PI3Kγ; 1 to 10 µM on mTOR; 10 to 100 µM at PI3Kδ; above 100 µM in test [1].

On to `C[C@H]1COCCN1c1nc2c(c(-c3ccc(NC(=O)NC4CC4)cc3)n1)CN(C(=O)CCN(C)C)C2` [Example 21, (S)-1-cyclopropyl-3-(4-(6-(3-(dimethylamino)propanoyl)-2-(3-methylmorpholino)-6,7-dihydro-5H-pyrrolo[3,4-d]pyrimidin-4-yl)phenyl)urea], for which the 50% inhibitory concentration (IC50) is above 100 µM on PI3Kα; 10 to 100 µM on PI3Kβ; above 100 µM on PI3Kγ; 1 to 10 µM at mTOR; 10 to 100 µM on PI3Kδ; above 100 µM in test [1].

`C[C@H]1COCCN1c1nc2c(c(-c3ccc(NC(=O)NC4CC4)cc3)n1)CN(C(=O)CO)C2` [Example 22, (S)-1-cyclopropyl-3-(4-(6-(2-hydroxyacetyl)-2-(3-methylmorpholino)-6,7-dihydro-5H-pyrrolo[3,4-d]pyrimidin-4-yl)phenyl)urea]: the IC50 was 10 to 100 µM on PI3Kα; 10 to 100 µM on PI3Kβ; 10 to 100 µM at PI3Kγ; 0.1 to 1 µM on mTOR; 1 to 10 µM on PI3Kδ; above 100 µM in test [1].

In the case of `C[C@H]1COCCN1c1nc2c(c(-c3ccc(NC(=O)NC4CC4)cc3)n1)CN(C(=O)CC#N)C2` [Example 23, (S)-1-(4-(6-(2-cyanoacetyl)-2-(3-methylmorpholino)-6,7-dihydro-5H-pyrrolo[3,4-d]pyrimidin-4-yl)phenyl)-3-cyclopropylurea], the IC50 was 10 to 100 µM on PI3Kα; 10 to 100 µM on PI3Kβ; above 100 µM on PI3Kγ; 0.1 to 1 µM on mTOR; 10 to 100 µM on PI3Kδ; above 100 µM in test [1].
